Key:
[1] = biological target: Induced myeloid leukemia cell differentiation protein Mcl-1 (Homo sapiens, UniProt Q07820); test: Inhibition of MCL-1 (unknown origin) by fluorescence polarization competition assay
[2] = biological target: Apoptosis regulator Bcl-2 (Homo sapiens, UniProt P10415); test: Inhibition of BCL-2 (unknown origin) by fluorescence polarization competition assay
Bcl-2-like protein 1 = Bcl-2-like protein 1 (Homo sapiens, UniProt Q07817); test: Inhibition of BCL-xL (unknown origin) by fluorescence polarization competition assay
Chain of Bcl-2-like protein 1 (Q07817 whole entry): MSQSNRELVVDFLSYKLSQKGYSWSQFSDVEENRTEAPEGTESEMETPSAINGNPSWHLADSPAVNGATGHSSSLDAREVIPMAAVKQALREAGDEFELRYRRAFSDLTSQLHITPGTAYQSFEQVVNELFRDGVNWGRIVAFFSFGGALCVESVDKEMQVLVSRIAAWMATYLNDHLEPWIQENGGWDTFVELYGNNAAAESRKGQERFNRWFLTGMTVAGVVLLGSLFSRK

Chain of Apoptosis regulator Bcl-2 (P10415 whole entry): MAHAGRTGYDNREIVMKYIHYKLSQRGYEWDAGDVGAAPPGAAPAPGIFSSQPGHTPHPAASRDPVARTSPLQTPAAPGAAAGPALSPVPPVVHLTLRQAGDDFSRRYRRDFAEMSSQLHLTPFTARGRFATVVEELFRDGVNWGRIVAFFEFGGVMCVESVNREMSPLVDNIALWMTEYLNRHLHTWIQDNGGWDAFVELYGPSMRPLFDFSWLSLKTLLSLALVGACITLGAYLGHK
Chain of Induced myeloid leukemia cell differentiation protein Mcl-1 (Q07820 whole entry): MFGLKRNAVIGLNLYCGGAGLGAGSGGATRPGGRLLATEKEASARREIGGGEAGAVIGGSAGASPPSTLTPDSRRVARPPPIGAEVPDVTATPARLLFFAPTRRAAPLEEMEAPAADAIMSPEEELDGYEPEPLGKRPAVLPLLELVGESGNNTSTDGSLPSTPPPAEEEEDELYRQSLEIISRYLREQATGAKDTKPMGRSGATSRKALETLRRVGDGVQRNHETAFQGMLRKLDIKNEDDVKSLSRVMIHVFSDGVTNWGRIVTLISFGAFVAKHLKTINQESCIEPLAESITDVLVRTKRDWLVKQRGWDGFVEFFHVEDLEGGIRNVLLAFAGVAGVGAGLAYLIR

Row | Ki [1] | Ki [2] | Ki (Bcl-2-like protein 1) | Structure (SMILES)
1 | 1.42 µM | 0.77 µM | – | Cc1cc(Oc2ccc(Cn3nc4ccc(Cl)cc4c3C(=O)NS(=O)(=O)c3ccc([N+](=O)[O-])c(NCCc4ccncc4)c3)cc2)cc(C)c1Cl
2 | 1.77 µM | 0.66 µM | > 10 µM | Cc1cc(Oc2ccc(Cn3nc4ccc(Cl)cc4c3C(=O)NS(=O)(=O)c3ccc(NCCc4ccncc4)c([N+](=O)[O-])c3)cc2)cc(C)c1Cl
3 | 1.68 µM | 0.96 µM | > 10 µM | Cc1cc(Oc2ccc(Cn3nc4ccc(Cl)cc4c3C(=O)NS(=O)(=O)c3ccc([N+](=O)[O-])c(NCc4ccco4)c3)cc2)cc(C)c1Cl
4 | 1.65 µM | 1.52 µM | > 10 µM | Cc1cc(Oc2ccc(Cn3nc4ccc(Cl)cc4c3C(=O)NS(=O)(=O)c3ccc(NCc4ccncc4)c([N+](=O)[O-])c3)cc2)cc(C)c1Cl
5 | 1.46 µM | 0.46 µM | > 10 µM | Cc1cc(Oc2ccc(Cn3nc4ccc(Cl)cc4c3C(=O)NS(=O)(=O)c3ccc(NCCc4cccnc4)c([N+](=O)[O-])c3)cc2)cc(C)c1Cl
6 | 1.57 µM | 0.6 µM | 3.45 µM | Cc1cc(Oc2ccc(Cn3nc4ccc(Cl)cc4c3C(=O)NS(=O)(=O)c3ccc(NCc4ccn(C)n4)c([N+](=O)[O-])c3)cc2)cc(C)c1Cl
7 | 1.28 µM | 0.62 µM | 3.4 µM | Cc1cc(Oc2ccc(Cn3nc4ccc(Cl)cc4c3C(=O)NS(=O)(=O)c3ccc(NCCc4ccco4)c([N+](=O)[O-])c3)cc2)cc(C)c1Cl
8 | 1.36 µM | 0.71 µM | > 10 µM | Cc1cc(Oc2ccc(Cn3nc4ccc(Cl)cc4c3C(=O)NS(=O)(=O)c3ccc([N+](=O)[O-])c(NCc4ccncc4)c3)cc2)cc(C)c1Cl
9 | 1.46 µM | 0.46 µM | > 10 µM | Cc1cc(Oc2ccc(Cn3nc4ccc(Cl)cc4c3C(=O)NS(=O)(=O)c3ccc([N+](=O)[O-])c(NCCc4cccnc4)c3)cc2)cc(C)c1Cl
10 | 2.3 µM | 0.9 µM | 6.66 µM | Cc1cc(Oc2ccc(Cn3nc4ccc(Cl)cc4c3C(=O)NS(=O)(=O)c3ccc([N+](=O)[O-])c(N4CCOCC4)c3)cc2)cc(C)c1Cl
11 | 1.12 µM | 1.18 µM | 4.42 µM | Cc1cc(Oc2ccc(Cn3nc4ccc(Cl)cc4c3C(=O)NS(=O)(=O)c3ccc(NCc4cccnc4)c([N+](=O)[O-])c3)cc2)cc(C)c1Cl
12 | > 10 µM | – | – | Cc1cc(OCCn2nc3ccc(Cl)cc3c2C(=O)O)cc(C)c1Cl
13 | > 10 µM | – | – | Cc1cc(OCCCn2c(C(=O)O)nc3ccccc32)cc(C)c1Cl
14 | 1 µM | 1.22 µM | > 10 µM | Cc1cc(Oc2ccc(Cn3nc4ccc(Cl)cc4c3C(=O)NS(=O)(=O)c3ccc([N+](=O)[O-])c(NCc4cccnc4)c3)cc2)cc(C)c1Cl
15 | 1.61 µM | 0.42 µM | – | Cc1cc(Oc2ccc(Cn3nc4ccc(Cl)cc4c3C(=O)NS(=O)(=O)c3ccc(NCCN4CCOCC4)c([N+](=O)[O-])c3)cc2)cc(C)c1Cl
16 | > 10 µM | – | – | Cc1cc(OCCCn2nc3ccc(Cl)cc3c2C(=O)O)cc(C)c1Cl
17 | 2.16 µM | 0.84 µM | > 10 µM | Cc1cc(Oc2ccc(Cn3nc4ccc(Cl)cc4c3C(=O)NS(=O)(=O)c3ccc([N+](=O)[O-])c(NCCc4ccco4)c3)cc2)cc(C)c1Cl
18 | 1.3 µM | 0.57 µM | > 10 µM | Cc1cc(Oc2ccc(Cn3nc4ccc(Cl)cc4c3C(=O)NS(=O)(=O)c3ccc(NCc4ccco4)c([N+](=O)[O-])c3)cc2)cc(C)c1Cl
19 | 1.32 µM | 0.53 µM | 7.99 µM | Cc1cc(Oc2ccc(Cn3nc4ccc(Cl)cc4c3C(=O)NS(=O)(=O)c3ccc(N4CCOCC4)c([N+](=O)[O-])c3)cc2)cc(C)c1Cl
20 | 1.2 µM | 0.51 µM | > 10 µM | Cc1cc(Oc2ccc(Cn3nc4ccc(Cl)cc4c3C(=O)NS(=O)(=O)c3ccc(Cl)cc3)cc2)cc(C)c1Cl
21 | 1.95 µM | 0.71 µM | 7.41 µM | Cc1cc(Oc2ccc(Cn3nc4ccc(Cl)cc4c3C(=O)NS(=O)(=O)c3ccc([N+](=O)[O-])c(NCc4ccn(C)n4)c3)cc2)cc(C)c1Cl

Row | Structure (SMILES) | Ki [1] | Ki [2] | Ki (Bcl-2-like protein 1)
22 | Cc1cc(Oc2ccc(Cn3nc(C(=O)O)c4cc(Cl)ccc43)cc2)cc(C)c1Cl | 2.28 µM | – | –

From ChEMBL document CHEMBL5104175, “Scaffold hopping from indoles to indazoles yields dual MCL-1/BCL-2 inhibitors from MCL-1 selective leads” (RSC Med Chem, 2022)
